Patent publication US20250241894A1, “TREATMENT OF MENTAL DISORDERS” (GH RESEARCH IRELAND LIMITED, priority 2022, published 2025)

System: patients with treatment-resistant major depressive disorder (TRD)
Experiment: Phase 1/2 clinical trial of inhaled 5-MeO-DMT in TRD: Part A single dose 12 mg or 18 mg; Part B individualized dosing regimen (IDR) 6, 12, 18 mg in a single day
Experimental: Patients were assigned to different groups. In the context of the present invention, the group who received a single, 12 mg dose and the group who underwent an intra-day individualized dosing regimen (IDR) that allowed for multiple, escalating doses (6 mg, 12 mg and 18 mg) within a single day, driven by the intensity of the patient-reported psychedelic experience are of interest.
This trial was designed in two parts. Part A was an open-label, single-arm, single-dose Phase 1 trial with two dose levels (12 mg (n=4) and 18 mg (n=4)). […] The primary endpoint of Part B was to assess the effects on the severity of depression, as assessed by the proportion of patients in remission on day seven after dosing, defined as a MADRS total score of less than or equal to 10.

[1] = 12 mg n=4, 2 hours, baseline 16

COc1ccc2[nH]cc(CCN(C)C)c2c1 [5-MeO-DMT]
MADRS Suicidal Thoughts improvement (12 mg n=4, 2 hours, baseline 8): 5 points
MADRS Inner Tension improvement (12 mg n=4, 2 hours, baseline 13): 11 points
MADRS Concentration Difficulties improvement [1]: 9 points
MADRS Inability to Feel improvement [1]: 7 points
MADRS Lassitude improvement [1]: 6 points
MADRS Pessimistic Thoughts improvement [1]: 8 points
BPRS Blunted Affect improvement (12 mg n=4, 3 hours, baseline 11): 3 points
BPRS Emotional Withdrawal improvement (12 mg n=4, 3 hours, baseline 13): 2 points
BPRS Tension improvement (12 mg n=4, 3 hours, baseline 14): 5 points
BPRS Guilt Feelings improvement (12 mg n=4, 3 hours, baseline 18): 9 points
BPRS Anxiety improvement (12 mg n=4, 3 hours, baseline 25): 14 points
MADRS Suicidal Thoughts improvement (12 mg n=4, Day 1, baseline 8): 3 points
BPRS Blunted Affect improvement (12 mg n=4, Day 1, baseline 11): 5 points
MADRS Reduced Sleep improvement (12 mg n=4, Day 1, baseline 12): 2 points
BPRS Emotional Withdrawal improvement (12 mg n=4, Day 1, baseline 13): 5 points
MADRS Inner Tension improvement (12 mg n=4, Day 1, baseline 13): 10 points
BPRS Tension improvement (12 mg n=4, Day 1, baseline 14): 8 points
MADRS Concentration Difficulties improvement (12 mg n=4, Day 1, baseline 16): 14 points
MADRS Inability to Feel improvement (12 mg n=4, Day 1, baseline 16): 15 points
MADRS Lassitude improvement (12 mg n=4, Day 1, baseline 16): 16 points
MADRS Pessimistic Thoughts improvement (12 mg n=4, Day 1, baseline 16): 9 points
BPRS Guilt Feelings improvement (12 mg n=4, Day 1, baseline 18): 13 points
BPRS Anxiety improvement (12 mg n=4, Day 1, baseline 25): 19 points
MADRS Suicidal Thoughts improvement (12 mg n=4, Day 7, baseline 8): 1 points
BPRS Blunted Affect improvement (12 mg n=4, Day 7, baseline 11): 6 points
MADRS Reduced Sleep improvement (12 mg n=4, Day 7, baseline 12): 6 points
BPRS Emotional Withdrawal improvement (12 mg n=4, Day 7, baseline 13): 7 points
MADRS Inner Tension improvement (12 mg n=4, Day 7, baseline 13): 8 points
BPRS Tension improvement (12 mg n=4, Day 7, baseline 14): 8 points
MADRS Concentration Difficulties improvement (12 mg n=4, Day 7, baseline 16): 13 points
MADRS Inability to Feel improvement (12 mg n=4, Day 7, baseline 16): 15 points
MADRS Lassitude improvement (12 mg n=4, Day 7, baseline 16): 13 points
MADRS Pessimistic Thoughts improvement (12 mg n=4, Day 7, baseline 16): 8 points
BPRS Guilt Feelings improvement (12 mg n=4, Day 7, baseline 18): 13 points
BPRS Anxiety improvement (12 mg n=4, Day 7, baseline 25): 19 points
MADRS Suicidal Thoughts improvement (IDR n=8, 2 hours, baseline 11): 8 points
MADRS Inner Tension improvement (IDR n=8, 2 hours, baseline 26): 15 points
MADRS Lassitude improvement (IDR n=8, 2 hours, baseline 27): 17 points
MADRS Pessimistic Thoughts improvement (IDR n=8, 2 hours, baseline 28): 21 points
MADRS Concentration Difficulties improvement (IDR n=8, 2 hours, baseline 30): 19 points
MADRS Inability to Feel improvement (IDR n=8, 2 hours, baseline 36): 24 points
BPRS Emotional Withdrawal improvement (IDR n=8, 3 hours, baseline 13): 5 points
BPRS Blunted Affect improvement (IDR n=8, 3 hours, baseline 15): 4 points
BPRS Tension improvement (IDR n=8, 3 hours, baseline 16): 5 points
BPRS Guilt Feelings improvement (IDR n=8, 3 hours, baseline 34): 20 points
BPRS Anxiety improvement (IDR n=8, 3 hours, baseline 37): 18 points
MADRS Suicidal Thoughts improvement (IDR n=8, Day 1, baseline 11): 10 points
BPRS Emotional Withdrawal improvement (IDR n=8, Day 1, baseline 13): 5 points
BPRS Blunted Affect improvement (IDR n=8, Day 1, baseline 15): 7 points
BPRS Tension improvement (IDR n=8, Day 1, baseline 16): 5 points
MADRS Reduced Sleep improvement (IDR n=8, Day 1, baseline 25): 13 points
MADRS Inner Tension improvement (IDR n=8, Day 1, baseline 26): 20 points
MADRS Lassitude improvement (IDR n=8, Day 1, baseline 27): 22 points
MADRS Pessimistic Thoughts improvement (IDR n=8, Day 1, baseline 28): 24 points
MADRS Concentration Difficulties improvement (IDR n=8, Day 1, baseline 30): 29 points
BPRS Guilt Feelings improvement (IDR n=8, Day 1, baseline 34): 23 points
MADRS Inability to Feel improvement (IDR n=8, Day 1, baseline 36): 34 points
BPRS Anxiety improvement (IDR n=8, Day 1, baseline 37): 21 points
MADRS Suicidal Thoughts improvement (IDR n=8, Day 7, baseline 11): 8 points
BPRS Emotional Withdrawal improvement (IDR n=8, Day 7, baseline 13): 5 points
BPRS Blunted Affect improvement (IDR n=8, Day 7, baseline 15): 7 points
BPRS Tension improvement (IDR n=8, Day 7, baseline 16): 6 points
MADRS Reduced Sleep improvement (IDR n=8, Day 7, baseline 25): 16 points
MADRS Inner Tension improvement (IDR n=8, Day 7, baseline 26): 14 points
MADRS Lassitude improvement (IDR n=8, Day 7, baseline 27): 24 points
MADRS Pessimistic Thoughts improvement (IDR n=8, Day 7, baseline 28): 25 points
MADRS Concentration Difficulties improvement (IDR n=8, Day 7, baseline 30): 21 points
BPRS Guilt Feelings improvement (IDR n=8, Day 7, baseline 34): 24 points
MADRS Inability to Feel improvement (IDR n=8, Day 7, baseline 36): 30 points
BPRS Anxiety improvement (IDR n=8, Day 7, baseline 37): 20 points
SAEs (Part A 12 mg and 18 mg): No SAEs
Severity and outcome of ADRs (Part A 12 mg and 18 mg): mild and resolved spontaneously
Proportion of patients in MADRS remission (Part A 12 mg n=4, day seven): 50%
Further patients with MADRS clinical response (Part A 18 mg n=4, day seven): 25%
Proportion of patients in MADRS remission (Part A 18 mg n=4, day seven): 25%
Outcome of ADRs (Part B IDR): resolved spontaneously
SAEs (Part B IDR): No SAEs
Proportion of patients in MADRS remission (total score <=10) (Part B IDR n=8, day seven): 87.5%
